Assays:
[1] = target: T1, dopamine D-1 receptor (Bos taurus, UniProt Q95136); assay: Competitive inhibition binding assay, 3H-Sch 23390 (D1-binding), bovine striatal membranes; details: for Ki: 3H-Sch 23390 binding, bovine striatal membranes, 30 minute at 37° C., Tris-HCl pH 7.4
T1 construct: Striata were dissected on ice and membranes prepared as described earlier; from tissue; host or cells: bovine striatum (membranes; brains from a local slaughter house)
Protocol: (§1) Compounds of represented by formula I may be synthesized as disclosed herein and diluted in 0.05M Tris buffer, pH 7.4, as required.
(§2) Bovine brains were obtained from a local slaughter house, on ice. […] Briefly, the striata were homogenized in 20 volumes of Tris-HCl (50 mM) buffer, pH 7.4, using a Polytron (Brinkmann) homogenizer, setting 7; membranes were washed by centrigugation (20,000×g) and resuspending in buffer, twice, and finally resuspended in assay buffer (Tris-HCl, 50 mM, pH 7.4, containing 120 mM NaCl, 5 mM KCl, […], 1 mM MgCl2). At least 3-4 different pools of membrane were processed and stored at -80° C.
(§3) For competition studies, several concentration of test drug or standard were included, ranging from 10^-4 to 10^-3. Tubes were incubated, 30 minute incubations at 37° C. were terminated by rapid filtration under vacuum, on to GF/B filters, presoaked in 0.3% polyethyleneamine (PEl), with three 5 ml washes.

[2] = target: T2, D-2 receptor (Bos taurus, UniProt P20288); assay: Competitive inhibition binding assay, 3H-spiperone (D2-binding), bovine striatal membranes
T2 construct: Striata were dissected on ice and membranes prepared as described earlier; from tissue; host or cells: bovine striatum (membranes; brains from a local slaughter house)
T2 sequence (P20288 whole entry): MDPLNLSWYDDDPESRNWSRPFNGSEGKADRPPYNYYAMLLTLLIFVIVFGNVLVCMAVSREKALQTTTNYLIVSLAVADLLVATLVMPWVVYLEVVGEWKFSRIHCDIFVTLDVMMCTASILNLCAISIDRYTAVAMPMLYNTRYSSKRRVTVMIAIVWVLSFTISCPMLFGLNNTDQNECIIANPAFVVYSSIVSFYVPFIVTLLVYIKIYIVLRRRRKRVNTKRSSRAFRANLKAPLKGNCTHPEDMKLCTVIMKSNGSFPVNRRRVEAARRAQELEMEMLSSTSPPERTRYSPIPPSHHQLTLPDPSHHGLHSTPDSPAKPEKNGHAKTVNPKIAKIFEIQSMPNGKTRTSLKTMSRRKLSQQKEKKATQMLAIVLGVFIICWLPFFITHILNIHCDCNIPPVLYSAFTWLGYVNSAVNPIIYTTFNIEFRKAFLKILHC
Protocol: as §1, §2, §3

[3] = 3H-spiperone binding, bovine striatal membranes, 30 minute at 37° C., Tris-HCl pH 7.4

T1 sequence (Q95136 whole entry): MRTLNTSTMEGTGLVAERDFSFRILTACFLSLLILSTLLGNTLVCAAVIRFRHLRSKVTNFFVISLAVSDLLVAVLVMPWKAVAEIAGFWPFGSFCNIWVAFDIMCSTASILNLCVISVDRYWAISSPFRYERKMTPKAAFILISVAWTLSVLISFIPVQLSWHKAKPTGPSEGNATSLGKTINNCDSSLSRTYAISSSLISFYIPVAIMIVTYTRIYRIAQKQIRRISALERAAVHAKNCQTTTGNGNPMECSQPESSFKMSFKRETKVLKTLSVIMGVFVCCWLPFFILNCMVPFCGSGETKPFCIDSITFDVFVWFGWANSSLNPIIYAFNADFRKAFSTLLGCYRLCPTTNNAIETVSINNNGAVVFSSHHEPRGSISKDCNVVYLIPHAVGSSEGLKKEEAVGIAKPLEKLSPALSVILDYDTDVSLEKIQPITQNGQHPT

Ki [1] [nM] | D1 receptor selectivity (D1 versus D2) ([1]; from the Ki data of Table 1, D1 vs D2) | Ki [2, 3] [nM] | Compound | Ki ([2]; pH 7.4) [nM]
1200 to 2000 | more than 100 fold | 200000 | CC(=O)Nc1cc(O)ccc1O [2,5-dihydroxyacetanilide] | –
0.8 | – | 800 | CN1CCc2cc(Cl)c(O)cc2[C@@H](c2ccccc2)C1 [Sch 23390, (R)-(+)-8-chloro-2,3,4,5-tetrahydro-3-methyl-5-phenyl-1H-3-benzazepin-7-olhemimaleate] | –
– | – | – | (+) butaclamol | 1
